These results are taken from US6099822A, “Imaging methods and compositions” (priority 1998, dated 2000).

For data set [1], the system named is Chinese hamster ovary cells. As to conditions: in words; cited from earlier work.
Data set [2] concerns MX-1 human breast tumor xenografts. In words: Autoradiographic biodistribution of Tc-99m-TG and C14-DG in nude mice bearing MX-1 tumors. In kind it is in vivo. The note with it: MX-1, center of the tumors, in words. As for the experimental part: 3 mCi (111 MBq) of Tc-99m-5TG and 5 μCi (185 kBq) of C^14 -DG were injected at the same time into the tail vein of the mice. Autoradiogram sections including the tumors and vital organs of the mice were obtained at 20 minutes, 1 hour, and 3 hours post injection and developed using simultaneous Tc-99m and C^14 exposures of the same sections.

Turning to `O=C([O-])CN(CCN(CC(=O)[O-])CC(=O)[O-])CCN(CC(=O)[O-])CC(=O)[O-].[99Tc+4]` [Tc-99m-DTPA], the “Exclusion by hypoxic cells” value in data set [1] is reported as “exclusion of Tc-99m-DTPA by hypoxic cells”.
As for C^14 -2-deoxyglucose [C^14 -DG], the Distribution within tumor entry in data set [2] is given as “decreased activity in this central area”.
